Experimental data as given in PubChem BioAssay AID1963837 (Molecular Pharmacology Branch, DTP, NCI, 2024).

System: 843126-344-R-J1-PDC complex spheroid viability
Assay: Anticancer human tumor 843126-344-R-J1-PDC patient-derived melanoma cell line growth inhibition [POLQ]
Conditions: second compound 0.0316 µM; first compound 10 µM; active compounds read low
Protocol: Multicellular complex tumor spheroid response to Polymerase (POL) inhibitors (novobiocin, ART-558, RP6685) in combination with a variety of drugs and investigational agents in selected tumor cell lines
The POL inhibitors (novobiocin, ART-558, and RP6685) were evaluated both individually and in combination with standard of care and investigational anticancer small molecules within a complex spheroid model of solid tumors. . Complex spheroids include a stromal component modeled by human endothelial cells (HUVEC) and fibroblasts modeled by human mesenchymal stem cells (MSCs). The concentration ranges selected for each drug and investigational agent were based upon clinically achievable concentrations if the clinical Cmax of the agent was known.
Compounds. The drugs and investigational agents: novobiocin (NSC847541), ART-558 (NSC835418), RP-6685 (NSC848927), peposertib (NSC802822), ceralasertib (NSC780249), elimusertib (NSC800525), camonsertib (NSC841442), AZD-1390 (NSC803789), olaparib (NSC753686), talazoparib (NSC767125), rucaparib (NSC756644), sotorasib (NSC818433), MRTX-1133 (NSC836407), SN-38 (NSC673596), topotecan (NSC609699), epotoside (NSC141540), doxorubicin (NSC123127), gemcitabine (NSC613327), 5-fluorouracil (NSC19893), paclitaxel (NSC125973), vemurafenib (NSC761431), MSA-2 (NSC828583), SN-011 (NSC837082), adavosertib (NSC754352), prexasertib (NSC758257), carboplatin (NSC241240) and oxaliplatin (NSC266046), were obtained from the National Cancer Institute (NCI) Developmental Therapeutics Program Chemical Repository (21). The FDA-approved anticancer drug set is available from the Developmental Therapeutics Program at https://dtp.cancer.gov/organization/dscb/obtaining/. […] The stock solutions were prepared in dimethyl sulfoxide (DMSO, Sigma-Aldrich, St. Louis, MO, cat. D2650), except for the platinum compounds which were prepared in saline (Quality Biological, Gaithersburg, MD, cat. 114-055-101), at 800-fold the tested concentration and stored at -70 degrees C prior to their use. All drugs and investigational agents were tested over a range starting from a high concentration at or near the clinical Cmax and decreasing in half-log increments. If the clinical Cmax for an agent had not been determined, the highest concentration tested was 10 microM, except for SN-38, which was tested at a high concentration of 1 microM.
Cell Culture. All cells were maintained in an incubator at 37 degrees C and 5% CO2 with 95% humidity. The PDC lines were cultured according to standard operating procedures established by the NCI PDMR (https://pdmr.cancer.gov). Table 3 of the manuscript, lists the cell lines along with the number of the three cell types plated to form the mct-spheroids and media for tumor cell growth. After thawing, all PDC lines, except 997537-175-T-J1-PDC and 415267-285-R-J2-PDC, were cultured in Matrigel-coated flasks prepared with a working solution of 1X Ham's F-12 nutrient mix, without supplementation (Thermo Fisher Scientific, cat. 11765054), 100 U/mL penicillin-streptomycin (Thermo Fisher Scientific, cat. 15140122), and 2.5% Matrigel (Corning Inc., Corning, NY, cat. 354248) for the first three passages. The two PDC lines 997537-175-T-J1-PDC and 415267-285-R-J2-PDC were cultured on uncoated flasks. The 857933-349-R-J2-PDC line was cultured in 6C/Colon 1B media containing advanced DMEM/F-12 (Thermo Fisher Scientific, cat. 12634028), 10 mM HEPES (Thermo Fisher Scientific, cat. 15630080), 1X GlutaMAX supplement (Thermo Fisher Scientific, cat. 35050061), 0.1 mg/mL primocin (InvivoGen, San Diego, CA, cat. ant-pm-2), 10% defined fetal bovine serum, heat inactivated (HyClone Laboratories Inc., Logan, UT, cat. SH30070.03HI), 50% L-WRN conditioned media (ATCC, cat. CRL-3276), 1.25 mM N-Acetyl-L-cysteine (Sigma-Aldrich, cat. A9165), 10 mM nicotinamide (Sigma-Aldrich, cat. N0636), 1X B-27 supplement (Thermo Fisher Scientific, cat. 17504044), 1X N-2 supplement (Thermo Fisher Scientific, cat. […]
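Further: spheroids exposed to drugs for seven days before readout.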

For `COc1ccc([C@@H](O)c2cc(-c3ncnc4cc(N5CCOCC5)ccc34)c(F)cc2Cl)nn1` + Cc1cccc(N(C)C(=O)C2C(O)CCN2c2nc(C)cc(C(F)(F)F)c2C#N)c1, the viability, T/C was 63.5%.

Same assay, conditions: second compound 0.1 µM; first compound 0.0316 µM; active compounds read low

First: O=C(Nc1ccc(O)c(NS(=O)(=O)c2ccc(F)cc2)c1)c1ccc(-c2ccccc2)cc1 + Cc1cccc(N(C)C(=O)C2C(O)CCN2c2nc(C)cc(C(F)(F)F)c2C#N)c1
Second: COc1ccc([C@@H](O)c2cc(-c3ncnc4cc(N5CCOCC5)ccc34)c(F)cc2Cl)nn1 + Cc1cccc(N(C)C(=O)C2C(O)CCN2c2nc(C)cc(C(F)(F)F)c2C#N)c1
The viability, T/C of the first is higher: 98.2% for the first, 85.2% for the second.

With `COc1cccc2c1C(=O)c1c(O)c3c(c(O)c1C2=O)CC(O)(C(=O)CO)CC3OC1CC(N)C(O)C(C)O1` (configuration not stated) + Cc1cccc(N(C)C(=O)C2C(O)CCN2c2nc(C)cc(C(F)(F)F)c2C#N)c1 the viability, T/C was 87.9%.

Same assay, conditions: second compound 0.1 µM; first compound 0.1 µM; active compounds read low

First: O=C(Nc1ccc(O)c(NS(=O)(=O)c2ccc(F)cc2)c1)c1ccc(-c2ccccc2)cc1 + Cc1cccc(N(C)C(=O)C2C(O)CCN2c2nc(C)cc(C(F)(F)F)c2C#N)c1
Second: COc1ccc([C@@H](O)c2cc(-c3ncnc4cc(N5CCOCC5)ccc34)c(F)cc2Cl)nn1 + Cc1cccc(N(C)C(=O)C2C(O)CCN2c2nc(C)cc(C(F)(F)F)c2C#N)c1
The viability, T/C of the first is higher: 94.5% for the first, 92.7% for the second.

Work on `COc1cccc2c1C(=O)c1c(O)c3c(c(O)c1C2=O)CC(O)(C(=O)CO)CC3OC1CC(N)C(O)C(C)O1` (configuration not stated) + Cc1cccc(N(C)C(=O)C2C(O)CCN2c2nc(C)cc(C(F)(F)F)c2C#N)c1 yielded a viability, T/C of 72.7%.

Same assay, conditions: second compound 0.1 µM; first compound 0.316 µM; active compounds read low

First: O=C(Nc1ccc(O)c(NS(=O)(=O)c2ccc(F)cc2)c1)c1ccc(-c2ccccc2)cc1 + Cc1cccc(N(C)C(=O)C2C(O)CCN2c2nc(C)cc(C(F)(F)F)c2C#N)c1
Second: COc1ccc([C@@H](O)c2cc(-c3ncnc4cc(N5CCOCC5)ccc34)c(F)cc2Cl)nn1 + Cc1cccc(N(C)C(=O)C2C(O)CCN2c2nc(C)cc(C(F)(F)F)c2C#N)c1
The viability, T/C of the first is lower: 84.1% for the first, 86.4% for the second.

Compound `COc1cccc2c1C(=O)c1c(O)c3c(c(O)c1C2=O)CC(O)(C(=O)CO)CC3OC1CC(N)C(O)C(C)O1` (configuration not stated) + Cc1cccc(N(C)C(=O)C2C(O)CCN2c2nc(C)cc(C(F)(F)F)c2C#N)c1 has a viability, T/C of 45.2%.

Same assay, conditions: second compound 0.1 µM; first compound 1 µM; active compounds read low

Compared with `O=C(Nc1ccc(O)c(NS(=O)(=O)c2ccc(F)cc2)c1)c1ccc(-c2ccccc2)cc1` + Cc1cccc(N(C)C(=O)C2C(O)CCN2c2nc(C)cc(C(F)(F)F)c2C#N)c1, `COc1ccc([C@@H](O)c2cc(-c3ncnc4cc(N5CCOCC5)ccc34)c(F)cc2Cl)nn1` + Cc1cccc(N(C)C(=O)C2C(O)CCN2c2nc(C)cc(C(F)(F)F)c2C#N)c1 is higher in viability, T/C: 83.6% for the first, 99.2% for the second.

`COc1cccc2c1C(=O)c1c(O)c3c(c(O)c1C2=O)CC(O)(C(=O)CO)CC3OC1CC(N)C(O)C(C)O1` (configuration not stated) + Cc1cccc(N(C)C(=O)C2C(O)CCN2c2nc(C)cc(C(F)(F)F)c2C#N)c1 showed a viability, T/C of 9.74%.

Same assay, conditions: second compound 0.1 µM; first compound 3.16 µM; active compounds read low

Going from `O=C(Nc1ccc(O)c(NS(=O)(=O)c2ccc(F)cc2)c1)c1ccc(-c2ccccc2)cc1` + Cc1cccc(N(C)C(=O)C2C(O)CCN2c2nc(C)cc(C(F)(F)F)c2C#N)c1 to `COc1ccc([C@@H](O)c2cc(-c3ncnc4cc(N5CCOCC5)ccc34)c(F)cc2Cl)nn1` + Cc1cccc(N(C)C(=O)C2C(O)CCN2c2nc(C)cc(C(F)(F)F)c2C#N)c1, the viability, T/C falls from 96.5% to 93.2%.

`COc1cccc2c1C(=O)c1c(O)c3c(c(O)c1C2=O)CC(O)(C(=O)CO)CC3OC1CC(N)C(O)C(C)O1` (configuration not stated) + Cc1cccc(N(C)C(=O)C2C(O)CCN2c2nc(C)cc(C(F)(F)F)c2C#N)c1 showed a viability, T/C of 4.9%.

Same assay, conditions: second compound 0.1 µM; first compound 10 µM; active compounds read low

Going from `O=C(Nc1ccc(O)c(NS(=O)(=O)c2ccc(F)cc2)c1)c1ccc(-c2ccccc2)cc1` + Cc1cccc(N(C)C(=O)C2C(O)CCN2c2nc(C)cc(C(F)(F)F)c2C#N)c1 to `COc1ccc([C@@H](O)c2cc(-c3ncnc4cc(N5CCOCC5)ccc34)c(F)cc2Cl)nn1` + Cc1cccc(N(C)C(=O)C2C(O)CCN2c2nc(C)cc(C(F)(F)F)c2C#N)c1, the viability, T/C falls from 75% to 63.3%.

In the case of `COc1cccc2c1C(=O)c1c(O)c3c(c(O)c1C2=O)CC(O)(C(=O)CO)CC3OC1CC(N)C(O)C(C)O1` (configuration not stated) + Cc1cccc(N(C)C(=O)C2C(O)CCN2c2nc(C)cc(C(F)(F)F)c2C#N)c1, the viability, T/C is reported as 3.68%.

Same assay, conditions: second compound 0.316 µM; first compound 0.0316 µM; active compounds read low

First: O=C(Nc1ccc(O)c(NS(=O)(=O)c2ccc(F)cc2)c1)c1ccc(-c2ccccc2)cc1 + Cc1cccc(N(C)C(=O)C2C(O)CCN2c2nc(C)cc(C(F)(F)F)c2C#N)c1
Second: COc1ccc([C@@H](O)c2cc(-c3ncnc4cc(N5CCOCC5)ccc34)c(F)cc2Cl)nn1 + Cc1cccc(N(C)C(=O)C2C(O)CCN2c2nc(C)cc(C(F)(F)F)c2C#N)c1
The viability, T/C of the first is lower: 86.4% for the first, 103% for the second.

For `COc1cccc2c1C(=O)c1c(O)c3c(c(O)c1C2=O)CC(O)(C(=O)CO)CC3OC1CC(N)C(O)C(C)O1` (configuration not stated) + Cc1cccc(N(C)C(=O)C2C(O)CCN2c2nc(C)cc(C(F)(F)F)c2C#N)c1, the viability, T/C was 92.7%.
